Laboratory results as given in patent publication US20250230193A1, “CYCLIC COMPOUND HAVING SELECTIVE KRAS INHIBITORY EFFECT ON HRAS AND NRAS” (CHUGAI SEIYAKU KABUSHIKI KAISHA, priority 2022, published 2025).

How the values were obtained:
[1] = target: GDP-bound NRAS wild-type protein (Homo sapiens, UniProt P01111); test: Binding to NRAS by surface plasmon resonance (SPR), Single Cycle Kinetics; details: KD ratio, GDP-bound NRAS wild-type vs GDP-bound KRAS wild-type, SPR
[2] = target: GDP-bound HRAS wild-type protein (Homo sapiens, UniProt P01112); test: Binding to HRAS by surface plasmon resonance (SPR), Single Cycle Kinetics; details: KD ratio, GDP-bound HRAS wild-type vs GDP-bound KRAS wild-type, SPR
GDP-bound HRAS wild-type protein, sequence (P01112 whole entry): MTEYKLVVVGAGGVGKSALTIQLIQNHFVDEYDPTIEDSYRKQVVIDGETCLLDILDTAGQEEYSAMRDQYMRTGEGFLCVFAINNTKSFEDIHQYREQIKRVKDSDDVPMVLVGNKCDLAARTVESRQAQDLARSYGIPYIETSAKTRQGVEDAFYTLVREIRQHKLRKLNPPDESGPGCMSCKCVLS

GDP-bound NRAS wild-type protein, sequence (P01111 whole entry): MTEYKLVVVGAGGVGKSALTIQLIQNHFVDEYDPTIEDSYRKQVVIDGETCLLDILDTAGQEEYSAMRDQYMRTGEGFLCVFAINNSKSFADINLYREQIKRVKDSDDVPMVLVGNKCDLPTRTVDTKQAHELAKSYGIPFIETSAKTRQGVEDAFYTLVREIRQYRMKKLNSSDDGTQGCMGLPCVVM

SMILES | NRAS/KRAS (ratio of KD value for NRAS to KD value for KRAS) [1] | HRAS/KRAS (ratio of KD value for HRAS to KD value for KRAS) [2]
CC[C@H](C)[C@@H]1NC(=O)[C@H](COC)N(C)C(=O)C[C@@H](C(=O)N(C)C)N(C)C(=O)[C@H](C2CCCC2)N(C)C(=O)C2(CC(C)(C)C2)NC(=O)[C@@H]2CC(F)(F)CN2C(=O)[C@H](CCc2cc(F)c(C(F)(F)F)c(F)c2)NC(=O)CN(C)C(=O)[C@H](Cc2ccc(C(F)(F)F)cc2)N2CC/C=C\C[C@@H](C2=O)N(C)C(=O)CN(C)C1=O [PP1717] | A (a compound having 10 or more and less than 20 is denoted as A) | A (a compound having 10 or more and less than 20 is denoted as A)
CCCOC[C@H]1C(=O)N[C@@H]([C@@H](C)CC)C(=O)N(C)CC(=O)N(C)[C@H]2C/C=C\CCN(C2=O)[C@@H](Cc2ccc(C(F)(F)F)cc2)C(=O)N(C)CC(=O)N[C@@H](CCc2cc(F)c(C(F)(F)F)c(F)c2)C(=O)N2CC(F)(F)C[C@H]2C(=O)NC2(CC(C)(C)C2)C(=O)N(C)[C@@H](C2CCCC2)C(=O)N(C)[C@H](C(=O)N(C)C)CC(=O)N1C [PP1718] | AA (a compound having 20 or more is denoted as AA) | A (a compound having 10 or more and less than 20 is denoted as A)
CCCN(C)C(=O)[C@@H]1CC(=O)N(C)[C@@H](CC(F)F)C(=O)N[C@@H]([C@@H](C)CC)C(=O)N(C)CC(=O)N(C)[C@H]2C/C=C\CCN(C2=O)[C@@H](Cc2ccc(C(F)(F)F)cc2)C(=O)N(C)CC(=O)N[C@@H](CCc2cc(F)c(C(F)(F)F)c(F)c2)C(=O)N2CCC[C@H]2C(=O)NC2(CC(C)(C)C2)C(=O)N(C)[C@@H](C2CCCC2)C(=O)N1C [PP1721] | A (a compound having 10 or more and less than 20 is denoted as A) | A (a compound having 10 or more and less than 20 is denoted as A)
CC[C@H](C)[C@@H]1NC(=O)[C@H](CC(F)(F)F)N(C)C(=O)C[C@@H](C(=O)N(C)C)N(C)C(=O)[C@H](C2CCCC2)N(C)C(=O)C2(CC(C)(C)C2)NC(=O)[C@@H]2CCCN2C(=O)[C@H](CCc2cc(F)c(C(F)(F)F)c(F)c2)NC(=O)CN(C)C(=O)[C@H](Cc2ccc(C(F)(F)F)cc2)N2CC/C=C\C[C@@H](C2=O)N(C)C(=O)CN(C)C1=O [PP1722] | AA (a compound having 20 or more is denoted as AA) | A (a compound having 10 or more and less than 20 is denoted as A)
CC[C@H](C)[C@@H]1NC(=O)[C@H](CC(C)C)N(C)C(=O)C[C@@H](C(=O)N(C)C)N(C)C(=O)[C@H](C2CCCC2)N(C)C(=O)C2(CC(C)(C)C2)NC(=O)[C@@H]2CCCN2C(=O)[C@H](CCc2cc(F)c(C(F)(F)F)c(F)c2)NC(=O)CN(C)C(=O)[C@H](Cc2ccc(C(F)(F)F)cc2)N2CC/C=C\C[C@@H](C2=O)N(C)C(=O)CN(C)C1=O [PP1727] | A (a compound having 10 or more and less than 20 is denoted as A) | A (a compound having 10 or more and less than 20 is denoted as A)
CC[C@H](C)[C@@H]1NC(=O)[C@H](CC2CCC2)N(C)C(=O)C[C@@H](C(=O)N(C)C)N(C)C(=O)[C@H](C2CCCC2)N(C)C(=O)C2(CC(C)(C)C2)NC(=O)[C@@H]2CCCN2C(=O)[C@H](CCc2cc(F)c(C(F)(F)F)c(F)c2)NC(=O)CN(C)C(=O)[C@H](Cc2ccc(C(F)(F)F)cc2)N2CC/C=C\C[C@@H](C2=O)N(C)C(=O)CN(C)C1=O [PP1728] | A (a compound having 10 or more and less than 20 is denoted as A) | A (a compound having 10 or more and less than 20 is denoted as A)
CCCN(C)C(=O)[C@@H]1CC(=O)N(C)[C@@H](COC)C(=O)N[C@@H]([C@@H](C)CC)C(=O)N(C)CC(=O)N(C)[C@H]2C/C=C\CCN(C2=O)[C@@H](Cc2ccc(C(F)(F)F)cc2)C(=O)N(C)CC(=O)N[C@@H](CCc2cc(F)c(C(F)(F)F)c(F)c2)C(=O)N2CCC[C@H]2C(=O)NC2(CC(C)(C)C2)C(=O)N(C)[C@@H](C2CCCC2)C(=O)N1C [PP1729] | AA (a compound having 20 or more is denoted as AA) | A (a compound having 10 or more and less than 20 is denoted as A)
